Values of other authors in patent US4529593A, “Use of gallium salts to treat disorders of calcium homeostasis” (Sloan-Kettering Institute for Cancer Research, priority 1984, dated 1985).

Columns and labels:
[1] = tested on: bone cells (particularly osteoclasts); conditions: comparatively brief exposure; Minkin 1973, Bockman unpublished; cited from earlier work
blood calcium levels = conditions: prior knowledge; cited from earlier work

CO[C@H](C(=O)[C@@H](O)[C@@H](C)O)[C@@H]1Cc2cc3cc(O[C@H]4C[C@@H](O[C@H]5C[C@@H](O)[C@H](O)[C@@H](C)O5)[C@H](O)[C@@H](C)O4)c(C)c(O)c3c(O)c2C(=O)[C@H]1O[C@H]1C[C@@H](O[C@H]2C[C@@H](O[C@H]3C[C@](C)(O)[C@H](O)[C@@H](C)O3)[C@@H](O)[C@@H](C)O2)[C@H](O)[C@@H](C)O1 [Mithramycin]
loss of bone cells (particularly osteoclasts) number [1]: considerable loss of bone cells
blood calcium levels (blood calcium levels): can also reduce blood calcium levels
